Assay results taken from article PMC7148434, “ACE-domain selectivity extends beyond direct interacting residues at the active site” (Biochemical Journal, 2020).
Values joined by “and” are separate entries in the source; they are usually repeats but may differ in a detail not shown here. Equal entries are not always repeated. Where two headings read alike, the source gives them in different places. Square brackets hold non-standard residues; d marks the D form. Ends that are not written are not given here. * marks the point of attachment. Dnp = O=[N+]([O-])c1ccc(*)c([N+](=O)[O-])c1; 2Abz = Nc1ccccc1C(=O)O

Key:
nACE [1] = details: cited from earlier work
nACE [2] = biological target: T1, nACE (Homo sapiens, UniProt P12821); design: The truncated (single domain) wild-type N-domain (nACE), wild-type C-domain (cACE) and N-domain mutant constructs; made in house; host or cells: CHO-K1; details: nACE; ref Lubbe et al. [23]; cited from earlier work
T1 sequence (P12821 40-624 limits assumed): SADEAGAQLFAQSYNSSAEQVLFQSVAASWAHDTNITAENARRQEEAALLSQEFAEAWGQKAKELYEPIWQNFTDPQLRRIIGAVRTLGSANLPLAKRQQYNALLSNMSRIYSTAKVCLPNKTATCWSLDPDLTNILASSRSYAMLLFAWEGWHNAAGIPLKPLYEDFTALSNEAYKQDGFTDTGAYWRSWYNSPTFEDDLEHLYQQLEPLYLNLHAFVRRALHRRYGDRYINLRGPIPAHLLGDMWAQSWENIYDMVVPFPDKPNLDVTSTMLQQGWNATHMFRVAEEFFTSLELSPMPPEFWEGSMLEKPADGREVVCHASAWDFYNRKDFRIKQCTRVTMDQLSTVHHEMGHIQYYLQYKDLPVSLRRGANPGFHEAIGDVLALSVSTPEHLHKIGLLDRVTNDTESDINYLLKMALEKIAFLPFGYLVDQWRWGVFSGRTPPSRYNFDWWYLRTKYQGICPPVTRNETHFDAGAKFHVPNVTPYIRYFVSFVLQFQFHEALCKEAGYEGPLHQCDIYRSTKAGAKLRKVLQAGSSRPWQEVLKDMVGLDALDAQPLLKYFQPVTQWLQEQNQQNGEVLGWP

[3] = biological target: T2, S′-nACE (S260T, E262S, D354E, S357V, T358V and E431D) (Homo sapiens, UniProt P12821, D383E/E291S/E460D/S289T/S386V/T387V); design: The truncated (single domain) wild-type N-domain (nACE), wild-type C-domain (cACE) and N-domain mutant constructs; made in house; host or cells: CHO-K1; details: cited from earlier work
T2 sequence (P12821 40-624 S289T/E291S/D383E/S386V/T387V/E460D): as the sequence (P12821 40-624 limits assumed) above, with S250T, E252S, D344E, S347V, T348V, E421D counted along it

[4] = biological target: T3, S2-nACE (Y369F and R381E) (Homo sapiens, UniProt P12821, R410E/Y398F); design: The truncated (single domain) wild-type N-domain (nACE), wild-type C-domain (cACE) and N-domain mutant constructs; made in house; host or cells: CHO-K1; details: cited from earlier work
T3 sequence (P12821 40-624 Y398F/R410E): as the sequence (P12821 40-624 limits assumed) above, with Y359F, R371E counted along it

[5] = biological target: T4, S2_S′-nACE (S260T, E262S, D354E, S357V, T358V, Y369F, R381E and E431D) (Homo sapiens, UniProt P12821, D383E/E291S/E460D/R410E/S289T/S386V/T387V/Y398F); design: The truncated (single domain) wild-type N-domain (nACE), wild-type C-domain (cACE) and N-domain mutant constructs; made in house; host or cells: CHO-K1; details: cited from earlier work
T4 sequence (P12821 40-624 S289T/E291S/D383E/S386V/T387V/Y398F/R410E/E460D): as the sequence (P12821 40-624 limits assumed) above, with S250T, E252S, D344E, S347V, T348V, Y359F, R371E, E421D counted along it

cACE [6] = biological target: T5, cACE (Homo sapiens, UniProt P12821); design: The truncated (single domain) wild-type N-domain (nACE), wild-type C-domain (cACE) and N-domain mutant constructs; made in house; host or cells: CHO-K1; method as in Lubbe et al. [23]; details: ref Lubbe et al. [23]; cited from earlier work
T5 sequence (P12821 643-1222 limits assumed): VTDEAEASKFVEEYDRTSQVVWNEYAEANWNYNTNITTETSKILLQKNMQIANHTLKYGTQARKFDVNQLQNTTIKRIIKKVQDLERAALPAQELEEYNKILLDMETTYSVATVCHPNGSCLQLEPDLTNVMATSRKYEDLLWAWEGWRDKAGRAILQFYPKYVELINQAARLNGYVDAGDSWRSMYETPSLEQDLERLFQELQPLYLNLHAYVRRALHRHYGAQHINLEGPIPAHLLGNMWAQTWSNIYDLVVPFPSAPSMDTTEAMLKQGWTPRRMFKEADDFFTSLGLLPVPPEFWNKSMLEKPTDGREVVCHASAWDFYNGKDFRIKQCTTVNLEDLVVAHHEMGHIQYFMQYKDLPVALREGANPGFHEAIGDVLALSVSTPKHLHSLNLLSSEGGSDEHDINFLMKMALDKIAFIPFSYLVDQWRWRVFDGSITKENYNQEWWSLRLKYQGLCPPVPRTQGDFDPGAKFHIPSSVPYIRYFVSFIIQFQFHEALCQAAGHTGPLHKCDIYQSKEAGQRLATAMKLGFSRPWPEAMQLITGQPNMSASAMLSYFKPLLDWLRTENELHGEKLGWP

nACE [7] = experiment: Inhibitor binding kinetics, modified Abz-FRK(Dnp)P-OH assay, wild-type N-domain; type: biochemical; details: Ki cACE / Ki nACE (N-selectivity)
Procedure: (§1) Serial dilutions of an appropriate range were prepared for each inhibitor in the aforementioned assay buffer. An appropriate concentration of enzyme was similarly prepared and incubated with an equal volume of inhibitor for 15 min at 22°C after which 20 μl volumes of the reactions were aliquoted to a 96-well plate. […] Control (zero inhibitor) reactions containing the appropriate concentration of methanol or DMSO (in the case of ketoACE-13 or omapatrilat, respectively) were included to correct for any possible vehicle-induced effects on the reaction rate.

[8] = biological target: T2, S′-nACE (S260T, E262S, D354E, S357V, T358V and E431D); experiment: Inhibitor binding kinetics, modified Abz-FRK(Dnp)P-OH assay, S′ mutant; type: biochemical
Procedure: as §1

cACE [9] = biological target: T5, cACE; experiment: Inhibitor binding kinetics, modified Abz-FRK(Dnp)P-OH assay, wild-type C-domain; type: biochemical
Procedure: as §1

[10] = Integrity of omapatrilat at ambient temperature monitored by HPLC (dimer formation); type: physicochemical
Procedure: The fluorogenic substrate Abz-FRK(Dnp)P-OH was a kind gift from Prof A.K. Carmona, Universidade Federal de São Paulo. The peptide was dissolved in 100% DMSO and the concentration determined by measuring the absorbance at 365 nm and extinction coefficient of 17 300 M^−1 cm^−1. Subsequent dilutions from the 1 mM stock of were made in assay buffer (50 mM HEPES, pH 6.8, 10 μM ZnCl2, 200 mM NaCl). […] KetoACE-13 was dissolved in 100% methanol to a stock concentration of 50 mM, followed by dilution in deionized distilled water to 10 mM. Since the dimerization of omapatrilat has been previously described, fresh 10 mM stocks of inhibitor were prepared in DMSO directly prior to kinetic analysis. The integrity of omapatrilat at ambient temperature was monitored at 50 µM by HPLC (Agilent 1260 Infinity HPLC System with a Poroshell 120 EC-C 18 column) over the timeframe of each assay, as previously described. A 20 µl injection volume was used with a 0.5 ml/min flow rate with A: 1% ACN, 0.1% TFA; B: 95% ACN, 0.1% TFA; and 0–100% B over 10 min; 214 nm.
Figure 2 . Effect of mutation on N-selective inhibition, integrity of omapatrilat at ambient temperature as monitored by HPLC and SDS–PAGE gel illustrating the decreased molecular mass of the active site mutant N389-S2_S′-nACE. (A) Inhibitor binding affinities (Ki values) for wild-type cACE or nACE mutants are shown on a log scale relative to nACE with error bars representing mean ± SD of at least two independent experiments. (B) Omapatrilat (50 μM in assay buffer) was analyzed using a Poroshell 120 EC-C 18 column on the Agilent 1260 infinity HPLC system. Twenty microliters of the sample was injected onto the column immediately after preparation or following incubation at ambient temperature for 1, 2 or 3 h. Conditions: A: 1% ACN, 0.1% TFA; B: 95% ACN, 0.1% TFA; 0–100% B over 10 min; 0.5 ml/min, 214 nm. […] (C) SDS–PAGE of purified nACE proteins (1) fully glycosylated S2_S′-nACE, (2) minimally glycosylated N389-nACE and (3) minimally glycosylated N389-S2_S′-nACE.

nACE [11] = biological target: T1, nACE; experiment: Inhibitor binding kinetics, modified Abz-FRK(Dnp)P-OH assay, wild-type N-domain; type: biochemical; design: The truncated (single domain) wild-type N-domain (nACE); made in house; host or cells: CHO-K1; details: nACE; Morrison plot; 50 mM HEPES pH 6.8, 200 mM NaCl, 10 μM ZnCl2; mean ± SD
Procedure: as §1

[12] = biological target: T3, S2-nACE (Y369F and R381E); experiment: Inhibitor binding kinetics, modified Abz-FRK(Dnp)P-OH assay, S2 mutant; type: biochemical; design: The truncated (single domain) wild-type N-domain (nACE), N-domain mutant constructs; made in house; host or cells: CHO-K1
Procedure: as §1

[13] = biological target: T4, S2_S′-nACE (S260T, E262S, D354E, S357V, T358V, Y369F, R381E and E431D); experiment: Inhibitor binding kinetics, modified Abz-FRK(Dnp)P-OH assay, combined S2_S′ mutant; type: biochemical; design: The truncated (single domain) wild-type N-domain (nACE), N-domain mutant constructs; made in house; host or cells: CHO-K1
Procedure: as §1

[14] = biological target: S2-nACE (N-domain mutant Y369F and R381E)
[15] = biological target: S2_S′-nACE (N-domain mutant S260T, E262S, D354E, S357V, T358V, Y369F, R381E and E431D)
[16] = biological target: S′-nACE (N-domain mutant S260T, E262S, D354E, S357V, T358V and E431D)
[17] = biological target: Wild-type C-domain of angiotensin-converting enzyme (cACE)
[18] = biological target: Wild-type N-domain of angiotensin-converting enzyme (nACE)

C[C@H](CP(=O)(O)[C@H](Cc1ccccc1)NC(=O)C(N)Cc1nnn[nH]1)C(=O)N[C@@H](C)C(N)=O (stereo partly drawn) [33RE]
Selectivity (Ki cACE/Ki nACE or mutant) (nACE [1]; Ki cACE / Ki nACE (N-selectivity), ref Lubbe et al. [23]): 1000 and 1006 | selectivity over cACE (nACE [1]; nACE over cACE, previous kinetic studies): ~1000 fold | Ki (nACE [2]): 11.2 ± 0.735 nM | Selectivity (Ki cACE/Ki nACE or mutant) ([3]; Ki cACE / Ki S′-nACE, ref Lubbe et al. [23]): 48 | decrease in binding affinity compared with nACE ([3]; S′-nACE relative to nACE): 22 fold | Ki ([3]; S′-nACE, ref Lubbe et al. [23]): 237 ± 13.6 nM | Selectivity (Ki cACE/Ki nACE or mutant) ([4]; Ki cACE / Ki S2-nACE, ref Lubbe et al. [23]): 4 | decrease in binding affinity compared with nACE ([4]; S2-nACE relative to nACE): 254 fold | Ki ([4]; S2-nACE, ref Lubbe et al. [23]): 2790 ± 156 nM | Selectivity (Ki cACE/Ki nACE or mutant) ([5]; Ki cACE / Ki S2_S′-nACE, ref Lubbe et al. [23]): 1.1 | decrease in binding affinity compared with nACE ([5]; S2_S′-nACE relative to nACE): 900 fold | Selectivity (Ki cACE/Ki nACE or mutant) (cACE [6]): 1

O=C(N[C@H]1CCS[C@H]2CCC[C@@H](C(=O)O)N2C1=O)[C@@H](S)Cc1ccccc1 [Omapatrilat, omapatrilat, reference compound]
Selectivity (Ki cACE/Ki nACE or mutant) (nACE [7]): 2 | Selectivity (Ki cACE/Ki nACE or mutant) ([8]; Ki cACE / Ki S′-nACE): 1 | Ki ([8]; S′-nACE, Morrison plot, 50 mM HEPES pH 6.8, 200 mM NaCl, 10 μM ZnCl2, mean ± SD): 0.49 ± 0.04 nM | Selectivity (Ki cACE/Ki nACE or mutant) (cACE [9]; Ki cACE / Ki cACE): 1 | Ki (cACE [9]; cACE, Morrison plot, 50 mM HEPES pH 6.8, 200 mM NaCl, 10 μM ZnCl2, mean ± SD): 0.7 ± 0.09 nM | fraction of dimer detected ([10]; 50 μM in assay buffer (50 mM HEPES pH 6.8), immediately after solubilization): 2.56% | increase in fraction of dimer ([10]; 50 μM in assay buffer, after 1 h at ambient temperature): 0.86% | fraction of dimer detected ([10]; 50 μM in assay buffer, after 3 h of incubation at ambient temperature): 11% | Ki (nACE [11]): 0.37 ± 0.05 nM | Selectivity (Ki cACE/Ki nACE or mutant) ([12]; Ki cACE / Ki S2-nACE): 2 | Ki ([12]; S2-nACE, Morrison plot, 50 mM HEPES pH 6.8, 200 mM NaCl, 10 μM ZnCl2, mean ± SD): 0.43 ± 0.13 nM | Selectivity (Ki cACE/Ki nACE or mutant) ([13]; Ki cACE / Ki S2_S′-nACE): 2 | Ki ([13]; S2_S′-nACE, Morrison plot, 50 mM HEPES pH 6.8, 200 mM NaCl, 10 μM ZnCl2, mean ± SD): 0.29 ± 0.01 nM

B1: Abz-FRK(Dnp)P-OH (peptide)
peptide: [2Abz]FRK(Dnp)P-OH
modifications: N-terminus assumed
SMILES: N=C(N)NCCC[C@H](NC(=O)[C@H](Cc1ccccc1)NC(=O)c1ccccc1N)C(=O)N[C@@H](CCCCNc1ccc([N+](=O)[O-])cc1[N+](=O)[O-])C(=O)N1CCC[C@H]1C(=O)O
Km of Abz-FRK(Dnp)P-OH hydrolysis (Michaelis-Menten model, initial velocities; 50 mM HEPES pH 6.8, 200 mM NaCl, 10 µM ZnCl2, ambient temperature) [14]: 11.9 μM | Km of Abz-FRK(Dnp)P-OH hydrolysis (Michaelis-Menten model, initial velocities; 50 mM HEPES pH 6.8, 200 mM NaCl, 10 µM ZnCl2, ambient temperature) [15]: 12.4 μM | Km of Abz-FRK(Dnp)P-OH hydrolysis (Michaelis-Menten model, initial velocities; 50 mM HEPES pH 6.8, 200 mM NaCl, 10 µM ZnCl2, ambient temperature) [16]: 4.51 μM | Km of Abz-FRK(Dnp)P-OH hydrolysis (Michaelis-Menten model, initial velocities; 50 mM HEPES pH 6.8, 200 mM NaCl, 10 µM ZnCl2, ambient temperature) [17]: 6.3 μM | Km of Abz-FRK(Dnp)P-OH hydrolysis (Michaelis-Menten model, initial velocities; 50 mM HEPES pH 6.8, 200 mM NaCl, 10 µM ZnCl2, ambient temperature) [18]: 7.54 μM
